# From US7037533B2 (priority 2001, dated 2006)
# Like-named read-outs stand apart in the source and are kept apart here.
# How the values were obtained:
# [1] = cited from earlier work
# [2] = inhibition of nitrosomorpholine generation from morpholine and NaNO2 in vitro; settings: 20 mg/ml
# Protocol: EGCG, quercetin, catechin, vitamin C and powdered green tea were used as a control group. Each specimen was used in a concentration of 2.5, 5, 10, 15, 20 mg/ml. 200 mM of sodium nitrate not containing morpholine was used as a negative control. The specimen not containing the nitrosating agent NaNO2 was used as a blank in each reaction.
# Each specimen was added into 15 ml of corning tubes according to concentration and marked with the blank, test, negative control. 1 ml of glacial acetic acid was added into each tube and 100 μl of 2 M NaNO2 was added into each tube except blank and distilled water was added to make total volume of 2 ml. After reacting for 10 minutes at 37° C., 176 μl of morpholine was added to make 2 M and the reaction was further carried out for 30 minutes at 37° C. The reaction was stopped by adding 3.8 ml of 5 N NaOH to set pH 10 to 12. According to DBA method, the specimens were measured and compared with blank group (not added NaNO2) and negative control group (not added morpholine and added 200 mM NaNO2).
# Generation rate of nitrosomorpholine (NMOR %) is measured as below calculating formula 1. NMOR %=[(t0−blank)−(t30−blank)]/(t0−blank) (Calculating formula 1) • Blank; a specimen not containing nitrosating agent NaNO2 • t0; a specimen containing 200 mM of NaNO2 without morpholine • t30; a specimen normally reacted in the generation of nitrosomorpholine.
# purified CYP 1A2 = biological target: T1, purified CYP 1A2 (Homo sapiens, UniProt P05177); test: purified RECO System CYP 1A2 enzyme activity with methoxyresorufin
# T1 sequence (P05177 2-516 limits assumed): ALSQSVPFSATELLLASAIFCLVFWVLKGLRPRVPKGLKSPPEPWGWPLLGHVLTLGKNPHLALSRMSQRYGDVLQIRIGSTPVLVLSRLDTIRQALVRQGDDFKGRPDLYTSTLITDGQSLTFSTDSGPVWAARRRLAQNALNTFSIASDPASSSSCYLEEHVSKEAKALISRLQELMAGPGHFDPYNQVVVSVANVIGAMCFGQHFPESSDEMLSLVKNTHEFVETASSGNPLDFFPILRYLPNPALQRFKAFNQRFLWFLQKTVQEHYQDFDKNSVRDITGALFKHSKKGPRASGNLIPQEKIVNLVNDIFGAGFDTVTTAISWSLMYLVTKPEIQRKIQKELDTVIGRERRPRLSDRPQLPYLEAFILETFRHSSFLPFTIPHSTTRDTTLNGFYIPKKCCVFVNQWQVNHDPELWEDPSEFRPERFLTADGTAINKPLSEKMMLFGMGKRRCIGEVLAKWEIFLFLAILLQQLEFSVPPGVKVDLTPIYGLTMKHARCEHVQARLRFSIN
# Protocol: A composition of enzyme mixture comprises 0.5 uM CYP1A2, 0.2 μM NADPH P450 reductase, 0.5 μg/uL CHAPS, 0.1 μg/uL liposomes (dilauroyl phosphotidylcholine, dileoyl phosphotidylcholine, dilauroyl phosphotidylcholine (1:1:1)), 3 mM reductive glutathion, and 50 mM HEPES/KOH (pH 7.4). A buffer solution is 1 M potassium/sodium phosphate. 768 μl of tertiary distilled water, 126.7 μl of CYP 1A2 buffer solution, and 5.3 μl of 1 mM methoxyresorufin were added sequentially to make […] of solution and heated at 37° C. 5 μl of enzyme activation inhibiting material was added into 85 μl of buffer solution and substrate mixture to make final concentration 0.1, 0.5, 1.0, and 2.0 mg/ml respectively. The reaction started at 37° C. while adding 5 μl of CYP 1A2 enzyme mixture and 5 μl of 50 mM NADPH. The reaction was maintained for 20 minutes and stopped by adding 1 ml of methanol. The enzyme activity was measured by using a RF-5301 PC spectrofluoro photometer (SHIMADZU, Japan).
# CYP 1A2 [3] = biological target: T2, CYP 1A2 (Rattus norvegicus, UniProt P04799); test: MROD (methoxyresorufin dealkylase) activity in Aroclor 1254-induced rat liver supernatant
# T2 sequence (P04799 1-513): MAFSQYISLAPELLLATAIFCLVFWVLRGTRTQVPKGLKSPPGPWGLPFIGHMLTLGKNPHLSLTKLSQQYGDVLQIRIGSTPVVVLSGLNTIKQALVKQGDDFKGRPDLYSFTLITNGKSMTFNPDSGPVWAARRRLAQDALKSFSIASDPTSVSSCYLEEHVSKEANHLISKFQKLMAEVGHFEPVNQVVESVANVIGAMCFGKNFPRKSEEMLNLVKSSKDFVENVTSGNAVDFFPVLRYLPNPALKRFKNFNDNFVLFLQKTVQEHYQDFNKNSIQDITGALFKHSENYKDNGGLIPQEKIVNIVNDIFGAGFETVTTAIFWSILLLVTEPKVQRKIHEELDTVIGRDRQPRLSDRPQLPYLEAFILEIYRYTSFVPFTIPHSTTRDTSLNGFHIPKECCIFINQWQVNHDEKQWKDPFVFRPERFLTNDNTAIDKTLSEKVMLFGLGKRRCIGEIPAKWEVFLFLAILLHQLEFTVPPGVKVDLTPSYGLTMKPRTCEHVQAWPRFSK
# Protocol: (§1) The present test measured the inhibition effect of CYP relating to NNK activation to various test materials after inducing CYP of a liver from a rat(Sprague-Dawley rat) by Aroclor 1254(Sigma, USA) and taking out the liver.
# (§2) Aroclor 1254 was injected into the abdomen of a 7-week old male rat (Sprague-Dawley rat) in a capacity of 500 mg/kg. After 5 days, the liver was taken out in a sterile state and homogenized using 0.15M of KCl solution at 4° C. A supernatant was separated by a centrifugal separation for 10 minutes at 9000 g from the homogenate and used in the test. Activity of CYP was measured by using pentoxyresorufin(Sigma USA) which is a substrate of CYP 2B1/2/4, ethoxyresorufin(Sigma USA) which is a substrate of CYP 1A1 and methoxyresorufin(Sigma USA) which is a substrate of CYP 1A2. […] The inhibition effect for CYP activity was compared using the above reaction specimen (inhibition material), the supernatant taken out from the liver and specific substrate of each CYP. […] Each specimen has a concentration of 0.1, 0.5, 1.0 and 2.0 mg/ml and an amount of protein taken out from the liver is set to 500 μg/ml. Each substrate had 2.5 μM of stock solution and finally became 25 nM after adding 10 μl. […] The enzyme activity was measured by using a RF-5301 PC spectrofluoro photometer (SHIMADZU, Japan) from the supernatant (excitation at 522 nm and emission at 586 nm). […]
# [4] = DPPH free radical scavenging
# Protocol: 1.5 ml of DPPH was placed into a cuvette and 1.5 ml of antioxidant solution was added and evenly mixed. Right after mixing, the change of absorbance (523 nm) according to time was measured and the decomposition rate was calculated. Decomposition rate=(initial absorbance of DPPH−absorbance after adding each specimen according to time)/initial absorbance of DPPH×100 (Calculating formula 3)
# CYP 1A2 [5] = biological target: T2, CYP 1A2
# Protocol: as §1, §2
# [6] = tested on: breast cancer, leukemia, uterus cancer, stomach cancer and colon cancer cell strain; settings: cited from earlier work
compound,measurement,setting,value
CN1C(=O)CC[C@H]1c1cccnc1 [cotinine],half period,[1]; cotinine,24 h
catechin,inhibition of generating nitromorpholine from morpholine,[2],~75%
same,order of inhibition of activity of purified CYP 1A2,purified CYP 1A2; purified enzyme,EGCG>>the functional agent>>quercetin>>powdered green tea>>catechin
same,order of inhibition of activity of CYP 1A2,CYP 1A2 [3],quercetin>>the functional agent>>catechin≈powdered green tea
epigallocatechin-3-gallate [EGCG],order of inhibition of activity of purified CYP 1A2,purified CYP 1A2; purified enzyme,EGCG>>the functional agent>>quercetin>>powdered green tea>>catechin
same,"DPPH radical scavenging effect, comparison",[4],two times higher than that of the functional agent and catechin
O=c1c(O)c(-c2ccc(O)c(O)c2)oc2cc(O)cc(O)c12 [quercetin],inhibition of generating nitromorpholine from morpholine,[2],~75%
same,order of inhibition of activity of purified CYP 1A2,purified CYP 1A2,EGCG>>the functional agent>>quercetin>>powdered green tea>>catechin
same,order of inhibition of activity of CYP 1A2,CYP 1A2 [5],quercetin>>the functional agent>>catechin≈powdered green tea
same,concentration of quercetin at which propagation of cancer cell strain was inhibited,[6],10 µM
CN1CCCC1c1cccnc1 (stereo not drawn) [nicotine],share of nicotine conversed into cotinine,[1]; in vivo,70-80%
same,share of nicotine conversed into nicotine-1-N-oxide by FMO,[1]; in vivo,4%
same,share of nicotine excreted as urine through metabolism,[1]; in vivo,80-90%
same,half period,[1]; nicotine,0.5 h
O=C(O)CCC(=O)c1cccnc1 [ketoic acid],share of ketoic acid metabolized to hydroxy acid and excreted as urine,[1]; in vivo,85%
